Laboratory results: patent publication EP0233461B2, “4,5,6-Substituted-2-pyrimidinamines” (AMERICAN CYANAMID COMPANY, priority 1986, dated 1987)
Where a name gives a salt, the structure may show the parent alone. Read-outs that look alike come from different tables or passages of the source.

Tested on: human basophils
Test: Inhibition of histamine release from immunologically stimulated human basophils
Assay type: cell-based
Details: concentration causing 50% inhibition of histamine release, by linear regression, active if IC50 ≦ 48 µM
Description: The blood is allowed to sediment at room temperature in two 50 ml polycarbonate centrifuge tubes until a sharp interface develops between the red cells and plasma (60-90 minutes). The plasma (top) layer from each tube is withdrawn by pipet and transferred to respective 50 ml polycarbonate tubes. The plasma is centrifuged for 8 minutes at 110X G at 4°C. The supernatant is carefully poured off as completely as possible and the cell button is resuspended in 2-3 ml of Tris-A buffer using a siliconized Pasteur pipet. The resuspension is accomplished by drawing the liquid gently in an out of the pipet, with the tip below the liquid until an even suspension of cells is obtained. Sufficient Tris-A buffer is then added to bring the volume in the tube to about 45 ml and the tube is centrifuged at 110X G for 8 minutes at 4°C. The supernatant is poured off and the cell button is resuspended and centrifuged as described above. The supernatant is poured off and the cell button is suspended in 2-3 ml of Tris-ACM buffer to make the final volume sufficient to allow addition to the reaction tubes. Reaction tubes containing anti-IgE or antigens, either alone or with test compound in a total volume of 0.2 ml are prepared and placed in a 37°C bath. The cells are warmed to 37°C and frequently swirled to ensure an even suspension, while 1.0 ml aliquots are added to each reaction tube. The tubes are then incubated for 60 minutes at 37°C, vortexing the tubes gently every 15 minutes to keep the cells evenly suspended. When the reaction is complete, the tubes are centrifuged at 4°C for 10 minutes at 1500 rpm to sediment the cells. […] Blanks and totals are included in each test. The blanks have cells and all reagents except antigen or anti-IgE. The totals contain 0.24 ml of 8% perchloric acid, one ml of cells and 0.2 ml of buffer. All samples are then centrifuged to remove the precipitate protein. […] The automated system consists of the following Technicon Autoanalyzer II components Sampler IV, Dual-Speed Proportioning Pump III, Fluoronephelometer with a narrow pass primary filter 7-60 and a secondary filter 3-74, Recorder, and Digital Printer. The manifold used is the one described by Siraganian vide supra, with the following modifications: the dialyzer is omitted; all pumping tubes pass through a single proportioning pump with large capacity and twice the volume of sample is taken for anaylsis. The automated chemistry consists of the following steps: Extraction from alkaline saline into butanol, back extraction into dilute hydrochloric acid by addition of heptane, reaction of histamine with o-phthaldialdehyde (OPT) at high pH and conversion of the OPT adduct to a stable fluorophore with phosphoric acid. The reaction product is then passed through the fluorometer. The full scale response is adjusted to 50 ng histamine base with a threshold sensitivity of approximately 0.5 ng. The instrument blank (wash) is substracted from the ng histamine of each sample. Then the ng histamine of each sample is divided by the mean of the three totals (cells lysed with perchloric acid) to obtain percent release. Control samples contain antigen but no test compound. Blank (or spontaneous release) samples contain neither antigen nor test compound. The mean of the blanks (three replicates) is subtracted from the percent release for controls and test compounds.

IC50 (Homo sapiens, read-out: IC50) [nM] | SMILES | also measured
6900 | COc1ccc(C)cc1Nc1nccc(-c2ccncc2)n1 [N-(2-Methoxy-5-methylphenyl)-4-(4-pyridinyl)-2-pyrimidinamine] | –
9800 | COc1ccccc1Nc1nccc(-c2cccnc2)n1 [N-(2-Methoxyphenyl)-4-(3-pyridinyl)-2-pyrimidinamine] | –
3900 | Cc1ccccc1Nc1nccc(-c2ccncc2)n1 [N-(2-Methylphenyl)-4-(4-pyridinyl)-2-pyrimidinamine] | –
5900 | Cc1ccc(Nc2nccc(-c3ccccn3)n2)cc1C [N-(3,4-Dimethylphenyl)-4-(2-pyridinyl)-2-pyrimidinamine] | –
700 | Cc1cc(C)cc(Nc2nccc(-c3ccco3)n2)c1 [N-(3,5-Dimethylphenyl)-4-(2-furanyl)-2-pyrimidinamine] | –
< 24000 | Cc1cc(C)cc(Nc2ncc(C)c(-c3ccco3)n2)c1 [N-(3,5-Dimethylphenyl)-4-(2-furanyl)-5-methyl-2-pyrimidinamine] | –
– | Cc1cc(C)cc(Nc2nccc(-c3ccccn3)n2)c1 [N-(3,5-Dimethylphenyl)-4-(2-pyridinyl)-2-pyrimidinamine, phosphate] | IC50 (phosphate, read-out: IC50): 300 nM
– | Cc1cc(C)cc(Nc2nccc(-c3ccccn3)n2)c1 [N-(3,5-Dimethylphenyl)-4-(2-pyridinyl)-2-pyrimidinamine, sulfate] | IC50 (Homo sapiens): 600 nM
– | Cc1cc(C)cc(Nc2nccc(-c3ccccn3)n2)c1 [N-(3,5-Dimethylphenyl)-4-(2-pyridinyl)-2-pyrimidinamine] | IC50 (read-out: IC50): 1000 nM
4300 | Cc1cc(C)cc(Nc2nccc(-c3cccs3)n2)c1 [N-(3,5-Dimethylphenyl)-4-(2-thienyl)-2-pyrimidinamine] | –
– | Cc1cc(C)cc(Nc2nccc(-c3cccnc3)n2)c1 [N-(3,5-Dimethylphenyl)-4-(3-pyridinyl)-2-pyrimidinamine, phosphate] | IC50 (phosphate, read-out: IC50): 3000 nM
– | Cc1cc(C)cc(Nc2nccc(-c3cccnc3)n2)c1 [N-(3,5-Dimethylphenyl)-4-(3-pyridinyl)-2-pyrimidinamine, sulfate] | IC50 (Homo sapiens): 3000 nM
– | Cc1cc(C)cc(Nc2nccc(-c3cccnc3)n2)c1 [N-(3,5-Dimethylphenyl)-4-(3-pyridinyl)-2-pyrimidinamine] | IC50 (read-out: IC50): 800 nM
4400 | Cc1cc(C)cc(Nc2nccc(-c3ccncc3)n2)c1 [N-(3,5-Dimethylphenyl)-4-(4-pyridinyl)-2-pyrimidinamine] | –
9300 | Cc1ccc(Nc2nccc(-c3cccnc3)n2)cc1Cl [N-(3-Chloro-4-methylphenyl)-4-(3-pyridinyl)-2-pyrimidinamine] | –
1300 | Clc1cccc(Nc2nccc(-c3ccccn3)n2)c1 [N-(3-Chlorophenyl)-4-(2-pyridinyl)-2-pyrimidinamine] | –
1500 | Clc1cccc(Nc2nccc(-c3cccnc3)n2)c1 [N-(3-Chlorophenyl)-4-(3-pyridinyl)-2-pyrimidinamine] | –
3100 | Clc1cccc(Nc2nccc(-c3ccncc3)n2)c1 [N-(3-Chlorophenyl)-4-(4-pyridinyl)-2-pyrimidinamine] | –
9700 | CCc1cccc(Nc2nccc(-c3ccco3)n2)c1 [N-(3-Ethylphenyl)-4-(2-furanyl)-2-pyrimidinamine] | –
1400 | CCc1cccc(Nc2nccc(-c3ccccn3)n2)c1 [N-(3-Ethylphenyl)-4-(2-pyridinyl)-2-pyrimidinamine] | –
48000 | CCc1cccc(Nc2nccc(-c3cccs3)n2)c1 [N-(3-Ethylphenyl)-4-(2-thienyl)-2-pyrimidinamine] | –
1700 | CCc1cccc(Nc2nccc(-c3cccnc3)n2)c1 [N-(3-Ethylphenyl)-4-(3-pyridinyl)-2-pyrimidinamine] | –
1100 | CCc1cccc(Nc2nccc(-c3ccsc3)n2)c1 [N-(3-Ethylphenyl)-4-(3-thienyl)-2-pyrimidinamine] | –
10600 | CCc1cccc(Nc2nccc(-c3ccncc3)n2)c1 [N-(3-Ethylphenyl)-4-(4-pyridinyl)-2-pyrimidinamine] | –

IC50 (Homo sapiens, read-out: IC50) [nM] | SMILES | also measured
900 | Fc1cccc(Nc2nccc(-c3ccccn3)n2)c1 [N-(3-Fluorophenyl)-4-(2-pyridinyl)-2-pyrimidinamine] | –
3300 | Fc1cccc(Nc2nccc(-c3cccnc3)n2)c1 [N-(3-Fluorophenyl)-4-(3-pyridinyl)-2-pyrimidinamine] | –
700 | Fc1cccc(Nc2nccc(-c3ccncc3)n2)c1 [N-(3-Fluorophenyl)-4-(4-pyridinyl)-2-pyrimidinamine] | –
5800 | COc1cccc(Nc2nccc(-c3cc(C)oc3C)n2)c1 [N-(3-Methoxyphenyl)-4-(2,5-dimethyl-3-furanyl)-2-pyrimidinamine] | –
200 | COc1cccc(Nc2nccc(-c3ccccn3)n2)c1 [N-(3-Methoxyphenyl)-4-(2-pyridinyl)-2-pyrimidinamine] | –
900 | COc1cccc(Nc2nccc(-c3cccs3)n2)c1 [N-(3-Methoxyphenyl)-4-(2-thienyl)-2-pyrimidinamine] | –
300 | COc1cccc(Nc2nccc(-c3cccnc3)n2)c1 [N-(3-Methoxyphenyl)-4-(3-pyridinyl)-2-pyrimidinamine] | –
1700 | COc1cccc(Nc2nccc(-c3ccsc3)n2)c1 [N-(3-Methoxyphenyl)-4-(3-thienyl)-2-pyrimidinamine] | –
400 | COc1cccc(Nc2nccc(-c3ccncc3)n2)c1 [N-(3-Methoxyphenyl)-4-(4-pyridinyl)-2-pyrimidinamine] | –
1200 | COc1cccc(Nc2nccc(-c3ccc(C)o3)n2)c1 [N-(3-Methoxyphenyl)-4-(5-methyl-2-furanyl)-2-pyrimidinamine] | –
2300 | COc1cccc(Nc2nccc(-c3ccc(C)s3)n2)c1 [N-(3-Methoxyphenyl)-4-(5-methyl-2-thienyl)-2-pyrimidinamine] | –
9400 | Cc1cccc(Nc2nccc(-c3cccn3C)n2)c1 [N-(3-Methylphenyl)-4-(1-methyl-1H-pyrrol-2-yl)-2-pyrimidinamine] | –
11100 | Cc1cccc(Nc2nccc(-c3ccc[nH]3)n2)c1 [N-(3-Methylphenyl)-4-(1H-pyrrol-2-yl)-2-pyrimidinamine] | –
700 | Cc1cccc(Nc2nccc(-c3ccccn3)n2)c1 [N-(3-Methylphenyl)-4-(2-pyridinyl)-2-pyrimidinamine] | –
– | Cc1cccc(Nc2nccc(-c3cccs3)n2)c1 [N-(3-Methylphenyl)-4-(2-thienyl)-2-pyrimidinamine, sulfate] | IC50 (sulfate): 3000 nM
1500 | Cc1cccc(Nc2nccc(-c3cccnc3)n2)c1 [N-(3-Methylphenyl)-4-(3-pyridinyl)-2-pyrimidinamine] | –
3800 | Cc1cccc(Nc2nccc(-c3ccsc3)n2)c1 [N-(3-Methylphenyl)-4-(3-thienyl)-2-pyrimidinamine] | –
9400 | Cc1cccc(Nc2nccc(-c3ccncc3)n2)c1 [N-(3-Methylphenyl)-4-(4-pyridinyl)-2-pyrimidinamine] | –
10900 | Cc1cccc(Nc2nccc(-c3ccnc4ccccc34)n2)c1 [N-(3-Methylphenyl)-4-(4-quinolinyl)-2-pyrimidinamine] | –
1400 | Cc1cccc(Nc2nccc(-c3ccc(C)s3)n2)c1 [N-(3-Methylphenyl)-4-(5-methyl-2-thienyl)-2-pyrimidinamine] | –
5400 | Cc1cccc(Nc2nccc(-c3cnccn3)n2)c1 [N-(3-Methylphenyl)-4-pyrazinyl-2-pyrimidinamine] | –
800 | CC(=O)c1ccc(Nc2nccc(-c3cccnc3)n2)cc1 [N-(4-Acetylphenyl)-4-(3-pyridinyl)-2-pyrimidinamine] | –
2300 | Brc1ccc(Nc2nccc(-c3cccnc3)n2)cc1 [N-(4-Bromophenyl)-4-(3-pyridinyl)-2-pyrimidinamine] | –
< 48000 | CCc1ccc(Nc2nccc(-c3cccn3C)n2)cc1 [N-(4-Ethylphenyl)-4-(1-methyl-1H-pyrrol-2-yl)-2-pyrimidinamine] | –

SMILES | IC50 (Homo sapiens, read-out: IC50) [nM] | also measured
Cc1cccc(Nc2nccc(-c3cccs3)n2)c1 [N-(3-Methylphenyl)-4-(2-thienyl)-2-pyrimidinamine] | 300 | –
